US8497270B2, “Macrocyclic integrase inhibitors” (Elanco Animal Health Ireland Limited, priority 2009, dated 2013)
Read-outs that look alike come from different tables or passages of the source.

Assays:
[1] = Assay 2: cellular cytotoxic activity; assay type: cell-based; conditions: human, mock-infected MT4-CMV-EGFP cells, EGFP fluorescence
Description: MT4-LTR-enhanced green fluorescent protein (EGFP) cells were obtained by transfecting MT4 cells with a selectable construct encompassing the coding sequences for the HIV LTR as a promoter for the expression of EGFP and subsequent selection of permanently transfected cells. MT4-cytomegalovirus (CMV)-EGFP cells were obtained by selection for permanently transformed MT4 cells with a CMV-EGFP reporter gene. Cell lines were maintained in RPMI 1640 medium supplemented with 10% heat-inactivated fetal calf serum, 2 mM L-glutamine, 0.1% NaHCO3, and antibiotics (0.02% gentamicin and 0.8% G418) and incubated in a humidified incubator with a 5% CO2 atmosphere at 37° C. Assay 2—Cellular Cytotoxic Activity The cytotoxicity of inhibitors was determined in parallel to the experiments under assay 1 on mock-infected MT4-CMV-EGFP cells (150,000 cells/ml) cultured in the presence or absence of different concentrations of compounds of formula I. After 3 days of incubation, inhibition of cell proliferation was quantified by measuring the EGFP fluorescence and expressed as the compound concentration that inhibits cell growth by 50% (CC50—see Table 1).

[2] = system: HIV-1 site-directed mutant strain N155H; test: Assay 1: inhibitory activity on HIV replication, N155H mutant (MT4-LTR-EGFP cells); assay type: cell-based; conditions: Human immunodeficiency virus 1, 72 h, read-out: N155H EC50
Description: (§1) Assay 1—Inhibitory Activity on HIV Replication Wild Type, N155H Mutant, and Q148R Mutant
(§2) MT4-LTR-enhanced green fluorescent protein (EGFP) cells were obtained by transfecting MT4 cells with a selectable construct encompassing the coding sequences for the HIV LTR as a promoter for the expression of EGFP and subsequent selection of permanently transfected cells. MT4-cytomegalovirus (CMV)-EGFP cells were obtained by selection for permanently transformed MT4 cells with a CMV-EGFP reporter gene. Cell lines were maintained in RPMI 1640 medium supplemented with 10% heat-inactivated fetal calf serum, 2 mM L-glutamine, 0.1% NaHCO3, and antibiotics (0.02% gentamicin and 0.8% G418) and incubated in a humidified incubator with a 5% CO2 atmosphere at 37° C.
(§3) N155H and Q148R mutant Integrase coding sequences were constructed in the pUC19-5′HXB2D vector (XbaI-SalI fragment of pHXB2D), containing the HIV-1 clone HXB2D IN coding sequence, by using a QuikChange site-directed mutagenesis kit (Stratagene, La Jolla, Calif.) and high-performance liquid chromatography-purified primers (Genset Oligos, La Jolla, Calif.). Altered plasmid sequences were confirmed by dideoxyribose sequencing.
(§4) For generation of site directed mutant (SDM) virus stocks, MT4 cells were subcultured at a density of 250,000 cells/ml on the day before transfection. Cells were pelleted and resuspended in phosphate-buffered saline at a concentration of 3.1×10^6 cells/ml. A 0.8-ml portion ([…]) was used for each transfection. Transfections were performed with a Bio-Rad Gene Pulser (Bio-Rad, Hercules, Calif.) with 0.4-cm electrode cuvettes (Bio-Rad). Cells were electroporated with 10 μg of SalI-linearized pUC19-3′HXB2D (SalI-XbaI fragment of pHXB2D) and 5 μg of SalI-digested SDM at 250 μF and 300 V, followed by a 30-min incubation at room temperature. Ten milliliters of fresh culture medium was then added to the suspension of transfected cells, and incubation was performed at 37° C. in a humidified atmosphere with 5% CO2. Cell cultures were monitored for the appearance of cytopathic effect (CPE). At virus breakthrough (full CPE), culture supernatant was typically harvested by centrifugation at 8 to 10 days after transfection and was stored at −80° C. for subsequent drug susceptibility determination.
(§5) The antiviral activity of different inhibitors was determined in a cell-based HIV-1 replication assay. MT4-LTR-EGFP cells (150,000 cells/ml) were infected with HIV-1 (IIIB or site-directed mutant strains N155H or Q148R; multiplicity of infection [MOI] of 0.0025) in the presence or absence of inhibitor. After 3 days of incubation, the inhibition of HIV replication was quantified by measuring EGFP fluorescence, and expressed as the inhibitor concentration required for 50% inhibition of HIV-1 replication in cell culture (IIIB EC50—see Table 1).

[3] = system: HIV-1 LAI (IIIB); test: Assay 3: inhibitory activity on HIV replication wild type in the presence of human serum; assay type: cell-based; conditions: Human immunodeficiency virus 1, IIIB, 96 h; in the presence of 50% human serum, 4 days, resazurin cell viability
Description: Assay 3—Inhibitory Activity on HIV Replication Wild Type in the Presence of Human Serum
For the Antiviral assay in the presence of 50% human serum MT-4-LTR-EGFP cells were infected with HIV-1 LAI (IIIB) at a MOI of 0.001 to 0.01 CCID50/cell in RPMI1640 medium. Following 1 h of incubation, cells were washed and plated into a 96-well plate containing serial dilutions of compound in the presence of 10% fetal calf serum (FCS), or 50% human serum. After 4 days incubation, the EC50 in the presence of 50% human serum (EC50/HS—see Table 1) was determined by a cell viability assay using resazurin (as described by Fields, R. D., and M. V. Lancaster (1993) Am. Biotechnol. Lab. 11:48-50).

[4] = biological target: recombinant HIV-1 integrase (Human immunodeficiency virus type 1 group M subtype B (isolate HXB2) (HIV-1), UniProt P04585); test: Assay 4: 3dQ assay, inhibition of HIV integrase mediated 3'-processing; assay type: biochemical
Description: The inhibition of HIV integrase mediated 3′-processing was determined in a biochemical assay. For this a short (˜20 bp) double stranded U5 LTR substrate was generated by hybridization of 5 μM 5′-[…]-3′-alx488 (SEQ ID 1) with 7 μM dabcyl-5′-[…]-3′ (SEQ ID 2) in 10 mM Tris pH 8.0, 100 mM NaCl (heating to 95° C. and gradually cooling over 30′ to RT). Integrase inhibition was determined by incubation of 150 nM recombinant HIV-1 integrase, 100 nM recombinant LEDGF and 50 nM U5 LTR substrate in reaction buffer (25 mM MOPS pH7.2, 10 mM DTT, 10 mM MgCl2, 15 mM potassium glutamate and 2.5% DMSO) in the presence or absence of different concentrations test compounds. After 2 h at 37° C. reactions were stopped by adding ⅕ volumes of 0.5% SDS and fluorescence was measured (excitation at 488 nm, emission at 538 nm) and expressed as the inhibitor concentration required for 50% inhibition of the HIV integrase (IC50—see Table 1).

[5] = system: HIV-1 IIIB; test: Assay 1: inhibitory activity on HIV replication, wild type (MT4-LTR-EGFP cells); assay type: cell-based; conditions: Human immunodeficiency virus 1, 72 h, 3 days, EGFP fluorescence
Description: as §1, §2, §5

[6] = system: HIV-1 site-directed mutant strain Q148R; test: Assay 1: inhibitory activity on HIV replication, Q148R mutant (MT4-LTR-EGFP cells); assay type: cell-based; conditions: Human immunodeficiency virus 1, 72 h, read-out: Q148R EC50
Description: as §1, §2, §3, §4, §5

[7] = 3'-processing, 150 nM integrase, 100 nM LEDGF, 50 nM U5 LTR substrate, 2 h at 37° C., read-out: IC50

SMILES | CC50 at 3 days [1] | EC50 [2] | EC50 [3] | IC50 [4, 7] | EC50 [5] | EC50 [6] | IC50 [4]
O=C1NCCCCCCNc2nc(c(O)c3ncccc23)C(=O)NCc2ccc(F)cc21 [Compound 1] | 20700 nM | 420 nM | 35 nM | 950 nM | 17 nM | 350 nM | –
O=C1NCCCNc2nc(c(O)c3ncccc23)C(=O)NCc2ccc(F)cc21 [Compound 2] | 61000 nM | – | – | – | 8900 nM | 36700 nM | 68000 nM
O=C1NCCCCNc2nc(c(O)c3ncccc23)C(=O)NCc2ccc(F)cc21 [Compound 3] | > 98000 nM | – | – | – | 1060 nM | 28000 nM | –
O=C1NCCCCCNc2nc(c(O)c3ncccc23)C(=O)NCc2ccc(F)cc21 [Compound 4] | > 31000 nM | 1900 nM | 130 nM | – | 71 nM | 7200 nM | –
O=C1NCCCCCCCNc2nc(c(O)c3ncccc23)C(=O)NCc2ccc(F)cc21 [Compound 5] | 7700 nM | 390 nM | 51 nM | 1000 nM | 17 nM | 440 nM | –
CN1c2nc(c(O)c3ncccc23)C(=O)NCc2ccc(F)cc2C(=O)NCCCCCS1(=O)=O [Compound 6] | 27700 nM | 83 nM | 3 nM | 250 nM | 4 nM | 8 nM | –
CN1c2nc(c(O)c3ncccc23)C(=O)NCc2ccc(F)cc2C(=O)NCCCCS1(=O)=O [Compound 7] | 13300 nM | 260 nM | 3 nM | 360 nM | 4 nM | 20 nM | –
O=C1NCCCCN2CCN(CC2)c2nc(c(O)c3ncccc23)C(=O)NCc2ccc(F)cc21 [Compound 8] | 3100 nM | 1900 nM | 18 nM | 1200 nM | 18 nM | 850 nM | –
O=C1NCCCN2CCN(CC2)c2nc(c(O)c3ncccc23)C(=O)NCc2ccc(F)cc21 [Compound 9] | 43000 nM | 1510 nM | 25 nM | 1600 nM | 17 nM | 460 nM | –
O=C1NCc2ccc(F)cc2OCCCCC(=O)N2CCN(CC2)c2nc1c(O)c1ncccc21 [Compound 10] | > 24000 nM | 110 nM | 27 nM | – | 3 nM | 39 nM | –
CN1c2nc(c(O)c3ncccc23)C(=O)NCc2ccc(F)cc2OCCCCS1(=O)=O [Compound 11] | > 24000 nM | 310 nM | 16 nM | – | 5 nM | 24 nM | –
CN1c2nc(c(O)c3ncccc23)C(=O)NCc2ccc(F)cc2OCCCCCS1(=O)=O [Compound 12] | > 98000 nM | 170 nM | 40 nM | 200 nM | 1 nM | 12 nM | –
